Results published in PMC8587151, “Dibenzofuran Derivatives Inspired from Cercosporamide as Dual Inhibitors of Pim and CLK1 Kinases” (Molecules, 2021).
Where “and” joins values, the source holds several entries; their conditions need not be identical. Equal entries are not always repeated. Where two headings read alike, the source gives them in different places.

What was measured:
MV4-11 cells = experiment: MTT cell proliferation assay; type: cell-based, human; conditions: Homo sapiens, MV4-11, 48 h, mean ± SEM
Source text: (§1) Various types of hematological malignancies were selected for in vitro testing: the human acute myeloid leukemia (AML) cell line MV4-11, and the human chronic myeloid leukemia (CML) cell lines KU812 and K562. Indeed, Pim kinases are overexpressed in a wide range of hematopoietic malignancies. Solid tumors were also included in the panel of tested cell lines: MCF-7 (human breast adenocarcinoma), HT-29 (human colon adenocarcinoma), and HeLa (human cervical cancer) cells. Cytotoxic effects were evaluated using an MTT assay, and living cells were also counted with the trypan blue dye exclusion method for MV4-11, KU812, and K562 cells.
(§2) MV4-11, K562, and KU812 cell lines were obtained from the Deutshe Sammlung von Mikroorganismens und Zellkulturen (DSMZ) and maintained according to the supplier’s recommendations. All cell lines were cultured in RPMI, with 10% fetal bovine serum, 1% glutamine, and 1% penicillin/ streptomycin at 37 °C and 5% CO2.
(§3) MV4-11, K562, and KU812 cells’ viability was studied using a MTT cell proliferation assay.
(§4) MV4-11, K562, and KU812 cells were incubated with 10 μL of MTT working solution (5 g/L of methylthiazolyldiphenyl-tetrazolium bromide from Sigma Aldrich, Lyon, France) for 4 h. Cells were then lysed overnight at 37 °C with 100 μL of 10% SDS and 0.003% HCl. Optical density (OD) at 570 nm was measured using a spectrophotometer CLARIOstar® (BMG Labtech, Offenburg, Germany). Living cells were also counted with the trypan blue dye exclusion method. […] Data were collected from at least three independent experiments and the values reported are means ± standard errors of the mean (SEM).

KU812 cells = experiment: MTT cell proliferation assay; type: cell-based; conditions: Homo sapiens, 48 h, mean ± SEM
Source text: as §1, §2, §3, §4

K562 cells = experiment: MTT cell proliferation assay; type: cell-based; conditions: Homo sapiens, 48 h, mean ± SEM
Source text: as §1, §2, §3, §4

HeLa cells = experiment: MTT cytotoxicity assay; type: cell-based; conditions: Homo sapiens, 72 h
Source text: as §1
(§5) The cancer cell lines MCF-7, HT-29, and HeLa were obtained from Cell Bank of Rio de Janeiro, Brazil, and were grown in RPMI-1640 medium and L929 cells were grown in Dulbecco’s Modified Eagle’s Medium (DMEM). Both media were supplemented with fetal bovine serum (FBS) (10% of the final concentration) followed by treatment with penicillin and streptomycin as antibiotics (1% of the final concentration). The crude was incubated in the presence of CO2 atmosphere (5%) for 24 h with the temperature monitored and maintained at 37 °C.
(§6) MCF-7, HT-29, HeLa, and L929 cells (3×10^5 cells/mL) were plated in 96-well plates and incubated in the presence of CO2 atmosphere (5%) for 24 h at 37 °C. […] Then, 25 μL of MTT (5 mg/mL in PBS) were added to each well and the plates were left for another 3 h in the incubator at 37 °C and at the end of this period, the supernatant was aspirated. To perform the reading, 100 μL of dimethylsulfoxide (DMSO) were added in each well for the dissolution of the formazan crystals. The amount of formazan was measured by reading the plate at 560 nm absorbance. […] Each sample was tested in triplicate in two independent experiments.

MCF-7 cells = experiment: MTT cytotoxicity assay; type: cell-based; conditions: Homo sapiens, MCF7, 72 h
Source text: as §1, §5, §6

HT-29 cells = experiment: MTT cytotoxicity assay; type: cell-based; conditions: Homo sapiens, 72 h
Source text: as §1, §5, §6

CaPkc1 = test system: CaPkc1; design: method as in PMID 20865172; conditions: ATP-competitive; cited from earlier work
MmCLK1 = molecular target: T1, MmCLK1 (Mus musculus, UniProt P22518); experiment: Kinase assay, luminescent ADP-Glo, 10 µM ATP; type: biochemical; conditions: ADP-Glo, 10 µM ATP, duplicate; read-out: Kinase Enzymatic IC50 CLK1
T1 construct: made in house; host or cells: Escherichia coli BL21 DE3 pLysS
Experimental: (§7) The synthesized compounds were tested using a luminescence-based assay against a panel of nine kinases: Pim-1, Pim-2, CDK5/p25, CDK9/CyclinT, Haspin, CK1ε, and GSK3β (from human); DYRK1A (from Rattus norvegicus); and CLK1 (from Mus musculus).
(§8) Kinase enzymatic activities were assayed with 10 µM ATP in 384-well plates using the luminescent ADP-Glo^TM assay (Promega, Madison, WI, USA) according to the recommendations of the manufacturer (see [56] for details on this method). The transmitted signal was measured using the Envision (PerkinElmer, Waltham, MA, USA) microplate luminometer and expressed in relative light unit (RLU). In order to determine the half maximal inhibitory concentration (IC50), the assays were performed in duplicate in the absence or presence of increasing doses of the tested compounds. GraphPad Prism6 software (GraphPad Software, San Diego, CA, USA) was used to fit dose–response curves and to determine the IC50 values. Kinase activities are expressed in % of maximal activity, i.e., measured in the absence of inhibitor. Peptide substrates were obtained from Proteogenix (Schiltigheim, France).
(§9) For kinases expressed in bacteria, the Escherichia coli BL21 DE3 pLysS strain (Invitrogen, ThermoFisher Scientific, Waltham, MA, USA) was transformed with pGEX-2T-1 (Sigma-Aldrich, St. Louis, MO, USA) containing the coding region of the corresponding kinase. For kinases expressed in Sf9 insect cells, the coding region of the corresponding kinase was cloned in pFastBac^TM vector. Purification of the recombinant kinases was performed following the protocol “Bac-to-Bac® Baculovirus Expression System” provided by the manufacturer (Invitrogen, ThermoFisher Scientific, Waltham, MA, USA).
(§10) To validate the kinase assay, model inhibitors were used for each tested enzyme: Staurosporine from Streptomyces sp. (#S5921, purity ≥ 95%, Sigma-Aldrich) for HsCK1ε; Indirubin-30-oxime (#I0404, purity ≥ 98%, Sigma-Aldrich) for HsGSK-3β, HsPim-1 and 2, human cyclin-dependent kinases, RnDYRK1A and MmCLK1; CHR-6494 (#SML0648, purity ≥ 98%, Sigma-Aldrich) for Haspin.

HsPim-2 = molecular target: T2, HsPim-2 (Homo sapiens, UniProt Q9P1W9); experiment: Kinase assay, luminescent ADP-Glo, 10 µM ATP; type: biochemical; conditions: mean of n ≥ 3, read-out: IC50 Pim-2
T2 construct: made in house; host or cells: Escherichia coli BL21 DE3 pLysS
Experimental: as §7, §8, §9, §10

HsCDK5/p25 = molecular target: T3, HsCDK5/p25 (Homo sapiens, UniProt Q00535); experiment: Kinase assay, luminescent ADP-Glo, 10 µM ATP; type: biochemical; conditions: duplicate, read-out: Kinase Enzymatic IC50 CDK5/p25
T3 construct: made in house; host or cells: Escherichia coli BL21 DE3 pLysS
Experimental: as §7, §8, §9, §10

HsPim-1 = molecular target: T4, HsPim-1 (Homo sapiens, UniProt P11309); experiment: Kinase assay, luminescent ADP-Glo, 10 µM ATP; type: biochemical
T4 construct: made in house; host or cells: Escherichia coli BL21 DE3 pLysS
Experimental: as §7, §8, §9, §10

HsCDK9/CyclinT = molecular target: T5, HsCDK9/CyclinT (Homo sapiens, UniProt P50750); experiment: Kinase assay, luminescent ADP-Glo, 10 µM ATP; type: biochemical; conditions: duplicate, read-out: Kinase Enzymatic IC50 CDK9/CyclinT
T5 construct: made in house; host or cells: Sf9 insect cells (baculovirus, pFastBac)
Experimental: as §7, §8, §9, §10

RnDYRK1A-kd = RnDYRK1A-kd (Rattus norvegicus, UniProt Q63470); experiment: Kinase assay, luminescent ADP-Glo, 10 µM ATP; type: biochemical; conditions: read-out: IC50 DYRK1A
Experimental: as §7, §8, §9, §10

HsCK1ε = molecular target: T6, HsCK1ε (Homo sapiens, UniProt P49674); experiment: Kinase assay, luminescent ADP-Glo, 10 µM ATP; type: biochemical; conditions: read-out: IC50 CK1
T6 construct: made in house; host or cells: Sf9 insect cells (baculovirus, pFastBac)
Experimental: as §7, §8, §9, §10

[1] = Table 1, ADP-Glo, 10 µM ATP, duplicate, read-out: Kinase Enzymatic IC50 Pim-1
[2] = Table 2, ADP-Glo, 10 µM ATP, mean of n ≥ 3, read-out: IC50 Pim-1

T4 sequence (P11309 whole entry): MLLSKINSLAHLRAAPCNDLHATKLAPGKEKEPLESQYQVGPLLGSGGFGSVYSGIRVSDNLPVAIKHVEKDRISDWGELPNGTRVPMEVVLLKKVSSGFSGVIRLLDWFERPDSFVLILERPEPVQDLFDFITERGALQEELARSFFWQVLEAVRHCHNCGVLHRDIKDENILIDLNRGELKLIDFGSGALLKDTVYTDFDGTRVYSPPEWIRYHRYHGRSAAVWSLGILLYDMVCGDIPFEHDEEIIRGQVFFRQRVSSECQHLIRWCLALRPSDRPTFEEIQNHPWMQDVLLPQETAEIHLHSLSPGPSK
T5 sequence (P50750 whole entry): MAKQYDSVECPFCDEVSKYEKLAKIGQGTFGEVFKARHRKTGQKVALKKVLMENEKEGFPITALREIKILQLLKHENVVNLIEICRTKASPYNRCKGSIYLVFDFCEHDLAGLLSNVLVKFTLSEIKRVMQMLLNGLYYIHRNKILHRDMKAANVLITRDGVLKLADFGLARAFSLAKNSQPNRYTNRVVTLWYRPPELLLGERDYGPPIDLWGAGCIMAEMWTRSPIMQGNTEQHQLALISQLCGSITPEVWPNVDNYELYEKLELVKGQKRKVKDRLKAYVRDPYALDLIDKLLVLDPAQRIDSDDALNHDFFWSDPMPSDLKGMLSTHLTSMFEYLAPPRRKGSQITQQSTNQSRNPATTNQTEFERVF
T5 sequence (O60563 whole entry partner): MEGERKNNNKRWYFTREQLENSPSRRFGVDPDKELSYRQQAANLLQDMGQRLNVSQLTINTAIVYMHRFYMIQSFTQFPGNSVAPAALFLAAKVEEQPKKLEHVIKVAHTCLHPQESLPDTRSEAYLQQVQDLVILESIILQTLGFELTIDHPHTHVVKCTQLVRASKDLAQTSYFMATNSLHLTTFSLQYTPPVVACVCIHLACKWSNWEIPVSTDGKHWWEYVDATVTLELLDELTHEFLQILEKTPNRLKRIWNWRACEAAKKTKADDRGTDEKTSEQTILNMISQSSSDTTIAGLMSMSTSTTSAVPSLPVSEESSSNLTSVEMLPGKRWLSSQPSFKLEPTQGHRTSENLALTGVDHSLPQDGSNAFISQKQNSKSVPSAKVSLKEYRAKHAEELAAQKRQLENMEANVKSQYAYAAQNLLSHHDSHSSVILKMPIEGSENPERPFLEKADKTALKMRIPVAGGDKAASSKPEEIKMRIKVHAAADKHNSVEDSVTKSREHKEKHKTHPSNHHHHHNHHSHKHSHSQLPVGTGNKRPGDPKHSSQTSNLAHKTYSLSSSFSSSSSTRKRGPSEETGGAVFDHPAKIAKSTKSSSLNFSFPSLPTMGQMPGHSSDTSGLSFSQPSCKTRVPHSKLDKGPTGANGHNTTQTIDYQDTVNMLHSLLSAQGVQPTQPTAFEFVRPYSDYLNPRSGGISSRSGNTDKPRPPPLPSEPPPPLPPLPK
T1 sequence (P22518 whole entry): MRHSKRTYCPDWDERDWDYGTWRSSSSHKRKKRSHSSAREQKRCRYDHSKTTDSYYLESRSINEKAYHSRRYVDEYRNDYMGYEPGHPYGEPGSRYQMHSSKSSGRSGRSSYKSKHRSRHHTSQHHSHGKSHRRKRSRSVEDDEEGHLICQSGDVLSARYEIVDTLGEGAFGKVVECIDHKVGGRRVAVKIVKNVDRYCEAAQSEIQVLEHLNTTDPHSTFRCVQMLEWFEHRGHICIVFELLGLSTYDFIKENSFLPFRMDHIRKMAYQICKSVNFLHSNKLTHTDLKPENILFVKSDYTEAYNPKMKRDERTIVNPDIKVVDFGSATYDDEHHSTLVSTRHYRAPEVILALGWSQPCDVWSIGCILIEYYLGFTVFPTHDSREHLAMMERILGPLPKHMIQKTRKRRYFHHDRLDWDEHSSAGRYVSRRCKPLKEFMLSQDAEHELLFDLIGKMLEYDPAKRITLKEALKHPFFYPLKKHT
T6 sequence (P49674 whole entry): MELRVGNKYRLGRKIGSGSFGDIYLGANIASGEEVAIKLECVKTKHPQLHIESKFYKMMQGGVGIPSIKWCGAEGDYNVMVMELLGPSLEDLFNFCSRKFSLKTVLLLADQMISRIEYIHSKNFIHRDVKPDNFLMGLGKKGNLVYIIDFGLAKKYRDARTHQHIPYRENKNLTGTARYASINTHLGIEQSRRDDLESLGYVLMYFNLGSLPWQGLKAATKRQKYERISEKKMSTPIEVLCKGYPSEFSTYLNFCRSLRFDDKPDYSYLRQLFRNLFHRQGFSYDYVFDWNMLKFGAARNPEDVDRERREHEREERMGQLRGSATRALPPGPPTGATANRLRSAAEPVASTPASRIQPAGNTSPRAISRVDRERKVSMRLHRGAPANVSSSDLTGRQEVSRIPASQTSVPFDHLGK
T3 sequence (Q00535 whole entry): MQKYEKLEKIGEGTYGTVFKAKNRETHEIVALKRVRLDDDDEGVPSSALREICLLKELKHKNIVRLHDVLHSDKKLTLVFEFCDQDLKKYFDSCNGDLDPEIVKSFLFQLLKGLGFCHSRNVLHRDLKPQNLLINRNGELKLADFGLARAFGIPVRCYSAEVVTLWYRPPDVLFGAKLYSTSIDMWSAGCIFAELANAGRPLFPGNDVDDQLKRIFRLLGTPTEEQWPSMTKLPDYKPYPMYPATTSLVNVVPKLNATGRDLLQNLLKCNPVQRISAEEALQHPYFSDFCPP
T3 sequence (Q15078 99-307 partner limits assumed): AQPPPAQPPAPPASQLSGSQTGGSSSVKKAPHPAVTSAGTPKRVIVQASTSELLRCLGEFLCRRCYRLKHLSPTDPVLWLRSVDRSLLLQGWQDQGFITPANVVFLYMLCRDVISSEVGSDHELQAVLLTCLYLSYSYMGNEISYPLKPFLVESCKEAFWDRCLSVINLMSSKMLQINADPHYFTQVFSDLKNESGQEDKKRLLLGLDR
T2 sequence (Q9P1W9 whole entry): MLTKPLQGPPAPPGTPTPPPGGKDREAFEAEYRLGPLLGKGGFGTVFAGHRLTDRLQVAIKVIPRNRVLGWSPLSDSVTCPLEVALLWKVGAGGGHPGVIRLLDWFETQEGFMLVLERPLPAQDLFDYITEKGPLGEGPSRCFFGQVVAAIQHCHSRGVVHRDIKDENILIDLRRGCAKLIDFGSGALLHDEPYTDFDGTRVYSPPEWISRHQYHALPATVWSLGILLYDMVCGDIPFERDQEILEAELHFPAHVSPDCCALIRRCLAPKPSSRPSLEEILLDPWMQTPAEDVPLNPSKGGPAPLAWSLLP

IC50 (MV4-11 cells) [nM] | IC50 (K562 cells) [nM] | IC50 (MmCLK1) [nM] | IC50 (HsPim-2) [nM] | IC50 (HsCDK5/p25) [nM] | IC50 (HsPim-1; [1]) | IC50 (HsPim-1; [2]) [nM] | IC50 (HsPim-1; printed in Figure 1, no reference given, read-out: Pim-1 IC50 (Figure 1)) [nM] | IC50 (HsCDK9/CyclinT) [nM] | melting point [°C] | IC50 (RnDYRK1A-kd) [nM] | IC50 (HsCK1ε) [nM] | SMILES | IC50 (KU812 cells) [nM] | IC50 (HeLa cells) [nM] | IC50 (MCF-7 cells) [nM] | IC50 (HT-29 cells) [nM] | IC50 (CaPkc1) [nM]
31500 ± 4700 | > 100000 | > 10000 | 1430 | 5600 | 730 nM | 730 | 732 | 220 | – | – | – | CC(=O)C1=C(O)C=C2Oc3c(C(N)=O)c(O)cc(O)c3[C@]2(C)C1=O [Cerco, Cercosporamide] | > 100000 | 7500 ± 3100 | 44300 ± 2100 | 10400 | 44
16100 ± 1600 | > 100000 | – | – | – | > 1000 nM and 1200 nM | 1200 | – | 920 | 342 to 343 | 690 | 680 | NC(=O)c1c(O)cc(O)c2c1oc1ccc(F)cc12 [Compound 46, 8-Fluoro-1,3-dihydroxydibenzo[b,d]furan-4-carboxamide] | > 100000 | – | – | – | –
